According to article PMC12736120, “First-in-Human Phase I Clinical Trial of SLC-391, a Novel and Selective AXL Inhibitor, in Patients with Advanced Solid Tumours” (Pharmaceuticals, 2025):
Read-outs that look alike come from different tables or passages of the source.

Test: Plasma pharmacokinetics, QD and BID cohorts (non-compartmental)
Format: in vivo, human
Details: for Cmax / Tmax / AUC / AUC(0-t) / concentration at 21 days: human, plasma, oral; for concentration at 21 days: read-out: Cmin, range across cohorts
Description: PK parameters were calculated by standard non-compartmental methods for SLC-391. Due to the long half-life of SLC-391 compared to the dosing interval, it was not possible to calculate a number of PK parameters, including plasma half-life and rate of elimination. Accumulation was assessed from the mean accumulation ratio factor (AR factor) calculated as the repeated dose (C1D21) mean value/single dose (C1D1) mean value for the PK parameters Cmax, AUC0–12, and AUC0–last for each dose group.
During QD dosing, blood samples for determination of SLC-391 plasma concentrations were collected predose and at 0.5, 1, 2, 3, 4, 6, 8, and 24 h after SLC-391 administration on cycle 1 day 1 (C1D1) and cycle 1 day 21 (C1D21). During BID dosing, blood samples were collected predose and at 1, 2, 3, 4, 6, 8, and 12 h after the first daily dose (before the second daily dose). Where possible, further samples were then collected at 13, 14, 22, and 24 h after the initial dose (predose C1D2). Blood samples were also collected on C1D21 (steady state) predose and at 1, 2, 3, 4, 6, 8, and 12 h after the first daily dose (before the second daily dose). Where possible, further samples were then collected at 13, 14, 22, and 24 h after the initial C1D21 dose (predose C2D1). An additional blood sample was also taken, where possible, at the end of treatment (EOT) visit.
After collection, blood samples were centrifuged, and plasma was separated and stored at −80 °C. Plasma concentrations of SLC-391 were measured by a validated analytical method involving liquid–liquid extraction followed by high-performance liquid chromatography (HPLC)–mass/mass spectroscopy assay using a Water Quattro Premier tandem quadrupole mass spectroscopy with Waters MassLynx data acquisition and processing software. Plasma analysis was carried out by Microconstants (San Diego, CA, USA) in compliance with the US FDA GLP regulations. The calibration range of the assay was from 0.100 to 100 ng/mL. Quality control samples prepared at 4 different analyte concentrations were analysed with each batch of samples against a separately prepared calibration standard. PK parameters were collected following single (day 1) and repeat dose (day 21) administration. PK parameters were summarised with appropriate descriptive statistics where possible (e.g., mean, geometric mean, median, maximum, minimum, and coefficient of variation). Descriptive PK parameters were determined by standard non-compartmental methods based on the concentration–time data of each subject. The nominal time was used for descriptive statistics calculations, and the actual sample collection times were used in PK analyses. PK analyses were performed using validated Phoenix WinNonlin Professional 8.3 (Certara, L.P., St. Louis, MO, USA).

## Nc1ncc(-c2cnn(C3CCNCC3)c2)cc1-c1nnc(CC2CC2)o1 [SLC-391, 3-(5-[cyclopropylmethyl]-1,3,4-oxadiazol-2-yl)-5-(1-[piperidin-4-yl]-1H-pyrazol-4-yl)-pyridin-2-amine]
110 mg, 110 mg BID, C1D1, median, n=3, plasma, read-out: Cmax
  Cmax: 0.0931 µg/mL
110 mg, 110 mg BID, C1D1, median, n=3, plasma, read-out: Tmax
  Tmax: 3 h
110 mg, 110 mg BID, C1D21, mean, n=3, plasma, read-out: AUC0–12
  AUC: 2.26 µg·h/mL
110 mg, 110 mg BID, C1D21, mean, n=3, plasma, read-out: AUC0–last
  AUC(0-t): 4.28 µg·h/mL
110 mg, 110 mg BID, C1D21, mean, n=3, plasma, read-out: Cmax
  Cmax: 0.249 µg/mL
110 mg, 110 mg BID, C1D21, mean, n=3, plasma, read-out: Tmax
  Tmax: 2.4 h
110 mg, 110 mg BID, C1D21, median, n=3, plasma, read-out: AUC0–12
  AUC: 1.39 µg·h/mL
110 mg, 110 mg BID, C1D21, median, n=3, plasma, read-out: AUC0–last
  AUC(0-t): 2.56 µg·h/mL
110 mg, 110 mg BID, C1D21, median, n=3, plasma, read-out: Cmax
  Cmax: 0.187 µg/mL
110 mg, 110 mg BID, C1D21, median, n=3, plasma, read-out: Tmax
  Tmax: 2.1 h
125 mg, QD, C1D1, read-out: AUC0–12, Mean
  AUC: 0.672 µg·h/mL
125 mg, QD, C1D1, read-out: AUC0–12, Median
  AUC: 0.877 µg·h/mL
125 mg, QD, C1D1, read-out: AUC0–last, Mean
  AUC(0-t): 1.04 µg·h/mL
125 mg, QD, C1D1, read-out: AUC0–last, Median
  AUC(0-t): 1.28 µg·h/mL
125 mg, QD, C1D1, read-out: Cmax, Mean
  Cmax: 0.103 µg/mL
125 mg, QD, C1D1, read-out: Cmax, Median
  Cmax: 0.123 µg/mL
125 mg, QD, C1D1, read-out: Tmax, Mean
  Tmax: 2 h
125 mg, QD, C1D1, read-out: Tmax, Median
  Tmax: 2.1 h
125 mg, QD, C1D21, read-out: AUC0–12, Mean
  AUC: 1.12 µg·h/mL
125 mg, QD, C1D21, read-out: AUC0–12, Median
  AUC: 1.38 µg·h/mL
125 mg, QD, C1D21, read-out: AUC0–last, Mean
  AUC(0-t): 1.84 µg·h/mL
125 mg, QD, C1D21, read-out: AUC0–last, Median
  AUC(0-t): 2.34 µg·h/mL
125 mg, QD, C1D21, read-out: Cmax, Mean
  Cmax: 0.147 µg/mL
125 mg, QD, C1D21, read-out: Cmax, Median
  Cmax: 0.188 µg/mL
125 mg, QD, C1D21, read-out: Tmax, Mean
  Tmax: 2 h
125 mg, QD, C1D21, read-out: Tmax, Median
  Tmax: 2 h
150 mg, 150 mg BID, C1D1, mean, n=5, plasma, read-out: AUC0–12
  AUC: 1.05 µg·h/mL
150 mg, 150 mg BID, C1D1, mean, n=6, plasma, read-out: AUC0–last
  AUC(0-t): 2.33 µg·h/mL
150 mg, 150 mg BID, C1D1, mean, n=6, plasma, read-out: Cmax
  Cmax: 0.236 µg/mL
150 mg, 150 mg BID, C1D1, mean, n=6, plasma, read-out: Tmax
  Tmax: 9 h
150 mg, 150 mg BID, C1D1, median, n=5, plasma, read-out: AUC0–12
  AUC: 1.07 µg·h/mL
150 mg, 150 mg BID, C1D1, median, n=6, plasma, read-out: AUC0–last
  AUC(0-t): 1.69 µg·h/mL
150 mg, 150 mg BID, C1D1, median, n=6, plasma, read-out: Cmax
  Cmax: 0.208 µg/mL
150 mg, 150 mg BID, C1D1, median, n=6, plasma, read-out: Tmax
  Tmax: 2 h
150 mg, 150 mg BID, C1D21, mean, n=6, plasma, read-out: AUC0–12
  AUC: 4.62 µg·h/mL
150 mg, 150 mg BID, C1D21, mean, n=6, plasma, read-out: AUC0–last
  AUC(0-t): 9.08 µg·h/mL
150 mg, 150 mg BID, C1D21, mean, n=6, plasma, read-out: Cmax
  Cmax: 0.527 µg/mL
150 mg, 150 mg BID, C1D21, mean, n=6, plasma, read-out: Tmax
  Tmax: 3.5 h
150 mg, 150 mg BID, C1D21, median, n=6, plasma, read-out: AUC0–12
  AUC: 4.87 µg·h/mL
150 mg, 150 mg BID, C1D21, median, n=6, plasma, read-out: AUC0–last
  AUC(0-t): 10 µg·h/mL
150 mg, 150 mg BID, C1D21, median, n=6, plasma, read-out: Cmax
  Cmax: 0.549 µg/mL
150 mg, 150 mg BID, C1D21, median, n=6, plasma, read-out: Tmax
  Tmax: 2.9 h
150 mg, QD, C1D1, read-out: AUC0–12, Mean
  AUC: 0.946 µg·h/mL
150 mg, QD, C1D1, read-out: AUC0–12, Median
  AUC: 0.892 µg·h/mL
150 mg, QD, C1D1, read-out: AUC0–last, Mean
  AUC(0-t): 1.61 µg·h/mL
150 mg, QD, C1D1, read-out: AUC0–last, Median
  AUC(0-t): 1.46 µg·h/mL
150 mg, QD, C1D1, read-out: Cmax, Mean
  Cmax: 0.156 µg/mL
150 mg, QD, C1D1, read-out: Cmax, Median
  Cmax: 0.126 µg/mL
150 mg, QD, C1D1, read-out: Tmax, Mean
  Tmax: 5.5 h
150 mg, QD, C1D1, read-out: Tmax, Median
  Tmax: 2.1 h
150 mg, QD, C1D21, read-out: AUC0–12, Mean
  AUC: 2.14 µg·h/mL
150 mg, QD, C1D21, read-out: AUC0–12, Median
  AUC: 2.08 µg·h/mL
150 mg, QD, C1D21, read-out: AUC0–last, Mean
  AUC(0-t): 3.62 µg·h/mL
150 mg, QD, C1D21, read-out: AUC0–last, Median
  AUC(0-t): 3.51 µg·h/mL
150 mg, QD, C1D21, read-out: Cmax, Mean
  Cmax: 0.254 µg/mL
150 mg, QD, C1D21, read-out: Cmax, Median
  Cmax: 0.269 µg/mL
150 mg, QD, C1D21, read-out: Tmax, Mean
  Tmax: 2.6 h
150 mg, QD, C1D21, read-out: Tmax, Median
  Tmax: 2 h
175 mg, QD, C1D1, n 1, read-out: AUC0–12, Mean
  AUC: 1.5 µg·h/mL
175 mg, QD, C1D1, n 1, read-out: AUC0–12, Median
  AUC: 1.5 µg·h/mL
175 mg, QD, C1D1, read-out: AUC0–last, Mean
  AUC(0-t): 1.58 µg·h/mL
175 mg, QD, C1D1, read-out: AUC0–last, Median
  AUC(0-t): 1.58 µg·h/mL
175 mg, QD, C1D1, read-out: Cmax, Mean
  Cmax: 0.357 µg/mL
175 mg, QD, C1D1, read-out: Cmax, Median
  Cmax: 0.357 µg/mL
175 mg, QD, C1D1, read-out: Tmax, Mean
  Tmax: 2 h
175 mg, QD, C1D1, read-out: Tmax, Median
  Tmax: 2 h
200 mg, 200 mg BID, C1D1, mean, n=3, plasma, read-out: AUC0–12
  AUC: 0.985 µg·h/mL
200 mg, 200 mg BID, C1D1, mean, n=3, plasma, read-out: AUC0–last
  AUC(0-t): 2.05 µg·h/mL
200 mg, 200 mg BID, C1D1, mean, n=3, plasma, read-out: Cmax
  Cmax: 0.174 µg/mL
200 mg, 200 mg BID, C1D1, mean, n=3, plasma, read-out: Tmax
  Tmax: 9.7 h
200 mg, 200 mg BID, C1D1, median, n=3, plasma, read-out: AUC0–12
  AUC: 1.13 µg·h/mL
200 mg, 200 mg BID, C1D1, median, n=3, plasma, read-out: AUC0–last
  AUC(0-t): 2.17 µg·h/mL
200 mg, 200 mg BID, C1D1, median, n=3, plasma, read-out: Cmax
  Cmax: 0.178 µg/mL
200 mg, 200 mg BID, C1D1, median, n=3, plasma, read-out: Tmax
  Tmax: 3.1 h
200 mg, 200 mg BID, C1D21, mean, n=2, plasma, read-out: AUC0–12
  AUC: 8.55 µg·h/mL
200 mg, 200 mg BID, C1D21, mean, n=2, plasma, read-out: AUC0–last
  AUC(0-t): 16.4 µg·h/mL
200 mg, 200 mg BID, C1D21, mean, n=2, plasma, read-out: Cmax
  Cmax: 0.875 µg/mL
200 mg, 200 mg BID, C1D21, mean, n=2, plasma, read-out: Tmax
  Tmax: 2.4 h
200 mg, 200 mg BID, C1D21, median, n=2, plasma, read-out: AUC0–12
  AUC: 8.55 µg·h/mL
200 mg, 200 mg BID, C1D21, median, n=2, plasma, read-out: AUC0–last
  AUC(0-t): 16.4 µg·h/mL
200 mg, 200 mg BID, C1D21, median, n=2, plasma, read-out: Cmax
  Cmax: 0.875 µg/mL
200 mg, 200 mg BID, C1D21, median, n=2, plasma, read-out: Tmax
  Tmax: 2.4 h
BID, 75 mg to 200 mg, C1D1, read-out: mean AUC0–last, range across cohorts
  AUC(0-t): 1.17 to 2.33 µg·h/mL
BID, 75 mg to 200 mg, C1D1, read-out: mean Cmax, range across cohorts
  Cmax: 0.0952 to 0.236 µg/mL
BID, 75 mg to 200 mg, C1D1, read-out: median Tmax, range across cohorts
  Tmax: 2 to 3.1 h
BID, 75 mg to 200 mg, C1D21, read-out: mean AUC0–last, range across cohorts
  AUC(0-t): 4.28 to 16.4 µg·h/mL
BID, 75 mg to 200 mg, C1D21, read-out: mean Cmax, range across cohorts
  Cmax: 0.249 to 0.875 µg/mL
BID, 75 mg to 200 mg, C1D21, read-out: median Tmax, range across cohorts
  Tmax: 1.9 to 2.9 h
QD, 25 mg to 150 mg, C1D21, read-out: mean AUC0–last, range across cohorts
  AUC(0-t): 0.461 to 3.62 µg·h/mL
QD, 25 mg to 150 mg, C1D21, read-out: mean Cmax, range across cohorts
  Cmax: 0.0419 to 0.436 µg/mL
QD, 25 mg to 150 mg, C1D21, read-out: median Tmax, range across cohorts
  Tmax: 1.5 to 2.1 h
QD, 25 mg to 175 mg, C1D1, read-out: mean AUC0–last, range across cohorts
  AUC(0-t): 0.27 to 1.58 µg·h/mL
QD, 25 mg to 175 mg, C1D1, read-out: mean Cmax, range across cohorts
  Cmax: 0.0325 to 0.357 µg/mL
QD, 25 mg to 175 mg, C1D1, read-out: median Tmax, range across cohorts
  Tmax: 0.9 to 2.1 h
After 21 days of BID dosing
  concentration at 21 days: 0.146 to 0.472 µg/mL
After 21 days of QD dosing
  concentration at 21 days: 0.0103 to 0.152 µg/mL
overall, as stated in the abstract, read-out: median Tmax
  Tmax: 2 h
Multiple doses, QD and BID
  steady state of plasma concentrations: appeared to reach a steady state by day 21
